Results on eleven compounds are retold here after ChEMBL document CHEMBL4024705 (Bioorg Med Chem Lett, 2017).

The test system of data set [1] is Liver. Nature of the data set: Stability of the compound in rat liver microsomes assessed as compound remaining. Format: ADME, microsome. (Liver microsomes are a subcellular fraction often used to study metabolism.)
Data set [2] concerns Liver. Put plainly: Stability of the compound in mouse liver microsomes assessed as compound remaining. Type of data set: ADME, microsome.
In data set [3] the test system is Liver. Nature of the data set: Stability of the compound in human liver microsomes assessed as compound remaining. Format: ADME, microsome.
Data set [4] in a line: Permeability of the compound by PAMPA. The settings on record: read-out: permeability. Format: physicochemical. Background: The PAMPA barrier holds no transporters, so it reflects passive diffusion.

Each structure is given as a SMILES string.

`CC[C@H]1COC(C)(C)C(=O)N1c1cc(-c2cc(Cl)c3c(N)ncnn23)ccc1C#N`: the Stability in data set [1] amounted to 4%; in data set [2] it was 1%; in data set [3] it was 53%.
Turning to `[2H]C([2H])([2H])C1([2H])N(c2cc(-c3cc(Cl)c4c(N)ncnn34)ccc2C#N)C(=O)C(C)(C)OC1([2H])[2H]` (centres undefined), the Stability in data set [1] lay in the range of 34 to 37%; in data set [2], 0 to 28%; in data set [3], 83 to 87%.
On the same counts, the results for `C[C@@H]1COC(C)(C)C(=O)N1c1cc(-c2cc(Cl)c3c(N)ncnn23)ccc1C#N` are 25%, 28% and 92%.
Consider `[2H]C1([2H])OC(C)(C)C(=O)N(c2cc(-c3cc(C(F)(F)F)c4c(N)ncnn34)ccc2C#N)C1([2H])[2H]`, for which the values for the Stability in data set [1], in data set [2] and in data set [3] were 75%, 74% and 91%, respectively.
On the same counts, the results for `C[C@H]1CN(c2cc(-c3cc(C(F)(F)F)c4c(N)ncnn34)ccc2C#N)C(=O)C(C)(C)O1` are 29%, 24% and 85%.
For `C[C@H]1COC(C)(C)C(=O)N1c1cc(-c2cc(C(F)(F)F)c3c(N)ncnn23)ccc1C#N` the same measures were 1%, 1% and 23%.
`[2H]C([2H])([2H])C1([2H])N(c2cc(-c3cc(C(F)(F)F)c4c(N)ncnn34)ccc2C#N)C(=O)C(C)(C)OC1([2H])[2H]` (centres undefined): the Stability was 32 to 44% in data set [1], 0 to 18% in data set [2] and 77 to 91% in data set [3].
In the case of `C[C@H]1OC(C)(C)C(=O)N(c2cc(-c3cc(C(F)(F)F)c4c(N)ncnn34)ccc2C#N)[C@H]1C`, the Stability in data set [1] came to 2%; in data set [2], 4%; in data set [3] it was 50%. In addition, the Papp in data set [4] amounted to 65.9 ×10⁻⁶ cm/s.
In the case of `[2H]C1([2H])OC(C)(C)C(=O)N(c2cc(-c3cc(Cl)c4c(N)ncnn34)ccc2C#N)C1([2H])[2H]`, the Stability in data set [1] is 76%; in data set [2] it was 58%; in data set [3] it was 94%.
As for `C[C@@H]1CN(c2cc(-c3cc(Cl)c4c(N)ncnn34)ccc2C#N)C(=O)C(C)(C)O1`, the Stability in data set [1] came to 5%; in data set [2] it was 43%; in data set [3], 61%.
Regarding `C[C@H]1CN(c2cc(-c3cc(Cl)c4c(N)ncnn34)ccc2C#N)C(=O)C(C)(C)O1`, the Stability in data set [1] is given as 0%; in data set [2] it was 0%; in data set [3], 18%.
